From the supplement of paper PMC10307832

Key:
Assay in all cases: relative viability (nuclei count vs DMSO), 5 days (fraction); higher = more cells survive
AT9283 + Navitoclax = compound: O=C(Nc1c[nH]nc1-c1nc2ccc(CN3CCOCC3)cc2[nH]1)NC1CC1 [AT9283] + CC1(C)CCC(c2ccc(Cl)cc2)=C(CN2CCN(c3ccc(C(=O)NS(=O)(=O)c4ccc(N[C@H](CCN5CCOCC5)CSc5ccccc5)c(S(=O)(=O)C(F)(F)F)c4)cc3)CC2)C1 [Navitoclax] (partner 0.5 µM)
Procedure, shortened: (§1)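 Five library-drug doses in √10 steps were combined with a fixed anchor-drug dose, or a single drug was given alone, by pin tool to lung cancer cell lines in 1536-well plates the day after seeding. Nuclei were stained and counted after 5 days. Relative viability is the nuclei count in treated wells over that in vehicle wells, taken as the median of duplicate plates.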

Erlotinib + Palbociclib = compound: C#Cc1cccc(Nc2ncnc3cc(OCCOC)c(OCCOC)cc23)c1 [Erlotinib] + CC(=O)c1c(C)c2cnc(Nc3ccc(N4CCNCC4)cn3)nc2n(C2CCCC2)c1=O [Palbociclib] (partner 0.5 µM)
Procedure, shortened: as §1

Erlotinib + Navitoclax = compound: C#Cc1cccc(Nc2ncnc3cc(OCCOC)c(OCCOC)cc23)c1 [Erlotinib] + CC1(C)CCC(c2ccc(Cl)cc2)=C(CN2CCN(c3ccc(C(=O)NS(=O)(=O)c4ccc(N[C@H](CCN5CCOCC5)CSc5ccccc5)c(S(=O)(=O)C(F)(F)F)c4)cc3)CC2)C1 [Navitoclax] (partner 0.5 µM)
Procedure, shortened: as §1

Erlotinib + Tozasertib = compound: C#Cc1cccc(Nc2ncnc3cc(OCCOC)c(OCCOC)cc23)c1 [Erlotinib] + Cc1cc(Nc2cc(N3CCN(C)CC3)nc(Sc3ccc(NC(=O)C4CC4)cc3)n2)n[nH]1 [Tozasertib] (partner 0.1 µM)
Procedure, shortened: as §1

Erlotinib + Vorinostat = compound: C#Cc1cccc(Nc2ncnc3cc(OCCOC)c(OCCOC)cc23)c1 [Erlotinib] + O=C(CCCCCCC(=O)Nc1ccccc1)NO [Vorinostat] (partner 1 µM)
Procedure, shortened: as §1

Cell Line	relative viability (AT9283 + Navitoclax; first compound 0.003 µM)	relative viability (AT9283 + Navitoclax; first compound 0.03 µM)	relative viability (AT9283 + Navitoclax; first compound 0.09487 µM)	relative viability (AT9283 + Navitoclax; first compound 0.3 µM)	relative viability (Erlotinib + Palbociclib; first compound 0.02 µM)	relative viability (Erlotinib + Palbociclib; first compound 0.2 µM)	relative viability (Erlotinib + Palbociclib; first compound 0.6325 µM)	relative viability (Erlotinib + Palbociclib; first compound 2 µM)	relative viability (Erlotinib + Navitoclax; first compound 0.02 µM)	relative viability (Erlotinib + Navitoclax; first compound 0.2 µM)	relative viability (Erlotinib + Navitoclax; first compound 0.6325 µM)	relative viability (Erlotinib + Navitoclax; first compound 2 µM)	relative viability (Erlotinib + Tozasertib; first compound 0.02 µM)	relative viability (Erlotinib + Tozasertib; first compound 0.2 µM)	relative viability (Erlotinib + Tozasertib; first compound 0.6325 µM)	relative viability (Erlotinib + Tozasertib; first compound 2 µM)	relative viability (Erlotinib + Vorinostat; first compound 0.02 µM)	relative viability (Erlotinib + Vorinostat; first compound 0.6325 µM)	relative viability (Erlotinib + Vorinostat; first compound 2 µM)	relative viability (Erlotinib + Vorinostat; first compound 0.2 µM)
HCC-15	0.685	0.515	0.246	0.148	0.727	0.672	0.751	0.71	0.735	0.68	0.736	0.617	0.411	0.444	0.398	0.16	0.876	0.868	0.676	
HCC-78	0.721	0.511	0.169	0.145	0.482	0.432	0.458	0.459	0.731	0.503	0.744	0.621	0.407	0.289	0.385	0.402	0.428	0.36	0.335	0.437
NCI-H2170	0.536	0.334	0.201	0.179	0.374	0.36	0.379	0.282	0.513	0.377	0.451	0.216	0.811	0.73	0.607	0.324	0.787	0.832	0.501	0.855
NCI-H23	0.741	0.538	0.423	0.174	0.571	0.447	0.453	0.509	0.894	0.88	1.16	0.596	0.387	0.344	0.299	0.26	0.704	0.666	0.485	0.502
NCI-H838	1.32	0.333	0.239	0.213	0.225	0.205	0.225	0.211	1.26	1.11	1.27	1.05	0.293	0.273	0.283	0.25	0.821	0.703	0.684	0.694
NCI-H522					0.908	0.969	0.883	0.824					0.493	0.573	0.508	0.465	0.949	0.869	0.762	0.832
NCI-H1650	1.34	1	0.29	0.232	0.265	0.287	0.309	0.245	1.15	1.23	1.14	0.924	0.465	0.332	0.305	0.217	0.556	0.488	0.411	0.559
EMC-BAC-2	1.23	0.785	0.199	0.25	0.529	0.501	0.553	0.505	1.13	1.04	0.974	0.906	0.279	0.345	0.32	0.25		0.524	0.446	0.543
HCC-366	1.1	0.842	0.191	0.0248	0.389	0.358	0.544	0.312	1.03	1.02	1.02	1.01	0.0918	0.0854	0.0664	0.039	0.41	0.369	0.222	0.363
SW 1573	0.868	0.508	0.117	0.117	0.38	0.362	0.37	0.355	0.922	1.05		0.896	0.183	0.197	0.156	0.226	0.652	0.824	0.405	0.605
LOU-NH91	0.735	0.605	0.37	0.283	0.564	0.546	0.624	0.542	0.52	0.38	0.392	0.4	0.564	0.472	0.491	0.424	0.803	0.785	0.703	0.713
NCI-H1299	1.09	0.927	0.363	0.304					1.11	1.08	1.06	0.981								
HCC-44	0.897	0.787	0.823	0.257	0.991	1.03	0.982		0.992	0.866	1.05	0.868	1.18	0.421	1.04	0.711	1.21	1.13	1.16	1.13
NCI-H1437	1.17	0.832	0.265	0.178	0.308	0.27	0.319	0.281		1.15		0.976	0.406	0.403	0.448	0.357		0.818	0.667	0.873
H3255	0.513	0.499	0.216	0.105	0.31	0.325	0.275	0.251	0.449	0.147	0.0899	0.0743		0.564	0.211	0.142	0.705	0.628	0.206	0.817
Calu-6	0.794	0.113	0.134	0.102					0.919	0.803	0.781	0.759								
NCI-H2085	1.05	0.815	0.671	0.244	0.465	0.44	0.379	0.381	1.23	0.988	0.893	0.808	0.808	0.637	0.598	0.404	0.78	0.724	0.535	0.649
EPLC-272H	0.984	1.05	1.1	0.138	0.337	0.307	0.278	0.279	1.04	1.05	1.1	0.589	0.22	0.291	0.235	0.183	0.459	0.396	0.292	0.411
NCI-H1355	1.07	0.806	0.46	0.158	0.387	0.344	0.325	0.269	1.02	0.9	0.812	0.675	0.567	0.538	0.4	0.266	0.668	0.602	0.521	0.633
BEN	0.0788	0.0854	0.0605	0.0596	0.497	0.442	0.507	0.483	0.0747	0.0625	0.0619	0.0646	0.593	0.462	0.468	0.436	0.66	0.637	0.547	0.523

Cell Line	relative viability (AT9283 + Navitoclax; first compound 0.003 µM)	relative viability (AT9283 + Navitoclax; first compound 0.03 µM)	relative viability (AT9283 + Navitoclax; first compound 0.09487 µM)	relative viability (AT9283 + Navitoclax; first compound 0.3 µM)	relative viability (Erlotinib + Palbociclib; first compound 0.02 µM)	relative viability (Erlotinib + Palbociclib; first compound 0.2 µM)	relative viability (Erlotinib + Palbociclib; first compound 0.6325 µM)	relative viability (Erlotinib + Palbociclib; first compound 2 µM)	relative viability (Erlotinib + Navitoclax; first compound 0.02 µM)	relative viability (Erlotinib + Navitoclax; first compound 0.2 µM)	relative viability (Erlotinib + Navitoclax; first compound 0.6325 µM)	relative viability (Erlotinib + Navitoclax; first compound 2 µM)	relative viability (Erlotinib + Tozasertib; first compound 0.02 µM)	relative viability (Erlotinib + Tozasertib; first compound 0.2 µM)	relative viability (Erlotinib + Tozasertib; first compound 0.6325 µM)	relative viability (Erlotinib + Tozasertib; first compound 2 µM)	relative viability (Erlotinib + Vorinostat; first compound 0.02 µM)	relative viability (Erlotinib + Vorinostat; first compound 0.6325 µM)	relative viability (Erlotinib + Vorinostat; first compound 2 µM)	relative viability (Erlotinib + Vorinostat; first compound 0.2 µM)
NCI-H1623													0.437	0.315	0.29	0.209				
NCI-H727	0.532	0.235	0.154	0.11	0.615	0.513	0.586	0.476	0.447	0.393	0.384	0.347	0.616	0.51	0.493	0.424	1.29	1.03	1.01	1.24
NCI-H2342					0.469	0.439	0.457	0.591					0.444	0.495	0.491	0.361	0.615	0.801	0.789	0.851
UMC-11	0.309	0.113	0.118	0.128	0.364	0.328	0.345	0.382	0.337	0.281	0.336	0.3	0.208	0.189	0.204	0.198	0.388	0.392	0.3	0.403
NCI-H1755	0.988	0.876	0.482	0.281	0.454	0.449	0.446	0.458	1.02	1	0.976			0.561	0.505	0.422	0.827	0.772	0.716	0.762
LCLC-103H					0.503	0.429	0.457	0.467					0.434	0.48	0.595	0.313	0.837	0.796	0.685	0.732
NCI-H1666	1.08	0.885	0.432	0.315	0.624	0.613	0.631	0.74	0.999	0.817	0.407	0.347	0.551	0.523	0.498	0.482		0.775	0.78	0.963
LC-2-ad	0.506	0.232	0.0899	0.101	0.527	0.491	0.472	0.411	0.488	0.472	0.397	0.229	0.484	0.383	0.414	0.345	0.731	0.75	0.589	0.794
IA-LM	0.952	0.372	0.112	0.0779					0.847		1.01	0.802					0.905		0.744	0.72
ABC-1						0.585	0.489						0.154	0.172	0.173	0.148		1.34	0.985	1.13
NCI-H358					0.132	0.146	0.109	0.108					0.0843	0.111	0.0963	0.0822	0.693	0.419	0.221	0.292
EBC-1	0.461	0.203	0.145	0.17					0.404	0.466	0.363	0.34								
NCI-H1792	0.637	0.569	0.248	0.187	0.612	0.541	0.639		0.451	0.545	0.84	0.579								
SW 900					0.492	0.48	0.472	0.398					0.514	0.487	0.33	0.257	0.683	0.523	0.448	0.439
NCI-H596	1.05	0.839	0.689	0.481					1.02	0.751	1.06	0.813	0.805	0.848	0.69	0.722	0.683	0.606	0.583	0.636
NCI-H661					0.418	0.43	0.383	0.355					0.344	0.381	0.341	0.394	0.834	0.775	0.646	0.758
NCI-H650					0.317	0.341	0.335	0.35							0.767	0.58	0.487	0.59	0.449	0.496
A549	1.14	0.0945	0.0413	0.0451					1.1	1.26	1.33	1.06								
NCI-H1703	1.36	0.19	0.216	0.176					1.1	1.09	1.32	1.11								
NCI-H1648					0.337	0.277	0.293	0.272					0.489	0.434	0.555	0.252	0.528	0.501	0.278	0.304
